Measured values taken from patent US20250064846A1, “TREATMENT AND PREVENTION OF TRIGEMINAL NEURALGIA” (THE JOHNS HOPKINS UNIVERSITY, priority 2022, published 2025).
“Also recorded” adds a separate entry of the source.

Assays:
TRPA1 = target: T1, TRPA1 (Homo sapiens, UniProt O75762); experiment: Calcium imaging of HEK293 cells transiently expressing WT TRPA1; type: cell-based; details: for inhibition of TRPA1 channel activity: applied after 4-HNE, 1 μM exemestane, 100 μM JQ-1, 10 μM sulforaphane; for activation of TRPA1: exemestane 1-100 μm, JQ-1 as high as 100 μM, 10 μM sulforaphane
T1 construct: expressed in transfected cells; host or cells: HEK293
Protocol: Calcium Imaging and Analysis Calcium imaging and analysis was performed as previously described (See Meixiong, J. et al. Elife 8, (2019)). Briefly, cells were imaged in calcium imaging buffer (CIB; 10 mM HEPES, 1.2 mM NaHCO3, 130 mM NaCl, 3 mM KCl, 2.5 mM CaCl2, 0.6 mM MgCl2, 20 mM glucose, and 20 mM sucrose at pH 7.4 and 290-300 mOsm). To monitor changes in intracellular [Ca^2+]([Ca^2+]i), cells were loaded with either 1 μM Fura 2-AM (HEK293 cells) or 1 μM Fluo 4-AM (trigeminal neurons) for 30 min in the dark at 37° C. in CIB just prior to imaging. With Fura 2-AM, emission at 510 nm was monitored following excitation at both 340 nm and 380 nm. With Fluo 4-AM, emission at 520 nm was monitored following excitation at 488 nm. Cells were identified as positively responding if [Ca^2+]i rose by 15% compared to baseline. Damaged, detached, high-baseline, and motion-activated cells were excluded from analysis.
HEK293 cells were plated on poly-D-lysine-coated coverslips and transiently transfected with the vector backbone or constructs encoding WT or mutant TRPA1. Unless otherwise noted, cells were imaged for 30 s to establish a baseline before compounds were added. Vehicle was first applied for 30 s, after which 100 μM iodoacetamide, 1 mM H2O2, or 100 μM 4-HNE was applied. CSF from cases and controls was diluted into calcium imaging buffer 1:50 prior to each trial. 50 μM of the non-selective TRP channel inhibitor ruthenium red was applied at the end of every imaging trial.

[1] = test system: constrictive mouse model of trigeminal neuralgia; experiment: Mechanical allodynia (Von Frey filament) after constriction of the maxillary nerve; type: in vivo; details: for mechanical allodynia (sensitivity to crude touch): WT mice, i.p. daily for two days before surgery and daily after behavior testing, sulforaphane, exemestane, letrozole 10 mg/kg, JQ-1 40 mg/kg, ascorbate 100 mg/kg, vs vehicle; for persistence of effects after treatment: daily i.p. dosing just after behavior testing
Protocol: (§1) Constriction of the Maxillary Nerve Constriction of the maxillary division of trigeminal nerve was performed as previously described (See Benedetti, A., et al., Biochimica Et Biophysica Acta Bba—Lipids Lipid Metabolism 620, 281-296 (1980) and Vos, B., et al J Neurosci 14, 2708-2723 (1994)). The procedure was performed under direct visualization and control with a surgical microscope. Mice were first anesthetized with ketamine (100 mg/kg, i.p.) and xylazine (12.5 mg/kg, i.p.) and monitored by pinching the skin between the toes with forceps and monitoring for withdrawal. Mice were restrained with adhesive tape to a sterilized polystyrene board. Upon sufficient anesthesia, the scalp was shaved and an anterior to posterior skin incision was made at the midline to expose the nasal and maxillary bones. The maxillary nerve was exposed and carefully dissected free from the surrounding connective tissue. The distal end of the maxillary nerve was then loosely constricted using 8-0 silk sutures as a ligature. The sutures were tied using a slip knot followed by a normal knot, after which any remaining suture was cut free. The incision was then closed with a 4-0 silk suture. In the sham procedure, the left maxillary nerve was exposed but not constricted. Mice were monitored and rehydrated until fully recovered from anesthesia.
(§2) Pharmacologic Treatments Mice were dosed with either sulforaphane (10 mg/kg, i.p.), exemestane (10 mg/kg, i.p.), letrozole (10 mg/kg, i.p.), (+)-JQ-1 (40 mg/kg, i.p.), (−)-JQ-1 (40 mg/kg, i.p.), or ascorbate (100 mg/kg, i.p.) as indicated below. Mice were first dosed daily for two days before surgery and again daily just after behavior testing. For local exemestane treatment, exemestane (5 μL, 25 μg total) was applied directly to the maxillary nerve. Mice received a single dose during surgery. Mice were dosed with AM-0902 (30 mg/kg, p.o.). Mice were treated with AM-0902 were dosed 30 min prior to behavior testing. Mice were dosed with tamoxifen (75 mg/kg, i.p.). Mice were dosed once every 24 hrs over 5 consecutive days. Behavioral and molecular tests were only performed 7 or more days after the final tamoxifen injection.
Mechanical Allodynia Mechanical allodynia was assessed in C57BL/6J, TRPA1^+/+, TRPA1^−/−, Keap1(f/f), and Keap1(f/f/CMV-CreER mice using a Von Frey filament as previously outlined (See Benedetti, A., et al., Biochimica Et Biophysica Acta Bba—Lipids Lipid Metabolism 620, 281-296 (1980) and Vos, B., et al J Neurosci 14, 2708-2723 (1994)). Animals were placed individually in transparent plastic boxes and allowed to acclimate to the environment for at least 30 min before testing. After habituation, a 0.04 g force Von Frey filament was used to stimulate the territory innervated by the maxillary nerve, including the vibrissal skin pad. Each mouse's response to the filament was scored from 0-4 on the scale below. Each mouse was scored ten times per day. Changes in mechanical allodynia were considered relative to sham- or vehicle-treated animal controls. Behavior was assessed concomitantly or in a blocked manner with consideration for both genotype and treatment. • 0—no response • 1—non-defensive response to the stimulus (e.g., mouse non-defensively explores filament) • 2—withdrawal response (e.g., mouse turns head away from filament) • 3—escape/attack response (e.g., mouse moves body away from filament and assumes crouching position against the box wall; actively attacks filament by biting and/or grabbing) • 4—asymmetric face grooming (e.g., mouse wipes stimulated facial area in uninterrupted series of at least three face-wash strokes)

[2] = test system: constrictive mouse model of trigeminal neuralgia; experiment: Cold allodynia (ice-cold acetone) after constriction of the maxillary nerve; type: in vivo; details: for cold allodynia (ice-cold acetone): WT mice, i.p. daily for two days before surgery and daily after behavior testing, sulforaphane, exemestane, letrozole 10 mg/kg, JQ-1 40 mg/kg, ascorbate 100 mg/kg, vs vehicle
Protocol: as §1, §2
Cold Allodynia Cold allodynia was assessed in C57BL/6J, TRPA1^+/+, TRPA1^−/−, Keap1(f/f), and Keap1(f/f)/CMV-CreER mice using ice-cold acetone as previously outlined (See Yoon, C., et al., Pain 59, 369-376 (1994)). Animals were placed individually in transparent plastic boxes and allowed to acclimatize to the environment for at least 30 min before testing. After habituation, 20 μl of cold acetone was applied to the ligated vibrissal pad skin surface. Cold allodynia was measured as the average time spent wiping the region in a 60 s period, with a maximum of 5 seconds between bouts of wiping. Allodynia was measured three times with 10 min between intervals. Changes in cold allodynia were considered relative to sham- or vehicle-treated animal controls. Behavior was assessed concomitantly or in a blocked manner with consideration for both genotype and treatment.

[3] = test system: constrictive mouse model of trigeminal neuralgia; experiment: Mechanical allodynia (Von Frey filament) after constriction of the maxillary nerve; type: in vivo; details: i.p. daily, sulforaphane 10 mg/kg; for mechanical allodynia (analgesic effect): NRF2−/− mice, exemestane 10 mg/kg, JQ-1 40 mg/kg
[4] = single local treatment, exemestane 25 μg/site applied directly to the maxillary nerve during surgery

T1 sequence (O75762 whole entry): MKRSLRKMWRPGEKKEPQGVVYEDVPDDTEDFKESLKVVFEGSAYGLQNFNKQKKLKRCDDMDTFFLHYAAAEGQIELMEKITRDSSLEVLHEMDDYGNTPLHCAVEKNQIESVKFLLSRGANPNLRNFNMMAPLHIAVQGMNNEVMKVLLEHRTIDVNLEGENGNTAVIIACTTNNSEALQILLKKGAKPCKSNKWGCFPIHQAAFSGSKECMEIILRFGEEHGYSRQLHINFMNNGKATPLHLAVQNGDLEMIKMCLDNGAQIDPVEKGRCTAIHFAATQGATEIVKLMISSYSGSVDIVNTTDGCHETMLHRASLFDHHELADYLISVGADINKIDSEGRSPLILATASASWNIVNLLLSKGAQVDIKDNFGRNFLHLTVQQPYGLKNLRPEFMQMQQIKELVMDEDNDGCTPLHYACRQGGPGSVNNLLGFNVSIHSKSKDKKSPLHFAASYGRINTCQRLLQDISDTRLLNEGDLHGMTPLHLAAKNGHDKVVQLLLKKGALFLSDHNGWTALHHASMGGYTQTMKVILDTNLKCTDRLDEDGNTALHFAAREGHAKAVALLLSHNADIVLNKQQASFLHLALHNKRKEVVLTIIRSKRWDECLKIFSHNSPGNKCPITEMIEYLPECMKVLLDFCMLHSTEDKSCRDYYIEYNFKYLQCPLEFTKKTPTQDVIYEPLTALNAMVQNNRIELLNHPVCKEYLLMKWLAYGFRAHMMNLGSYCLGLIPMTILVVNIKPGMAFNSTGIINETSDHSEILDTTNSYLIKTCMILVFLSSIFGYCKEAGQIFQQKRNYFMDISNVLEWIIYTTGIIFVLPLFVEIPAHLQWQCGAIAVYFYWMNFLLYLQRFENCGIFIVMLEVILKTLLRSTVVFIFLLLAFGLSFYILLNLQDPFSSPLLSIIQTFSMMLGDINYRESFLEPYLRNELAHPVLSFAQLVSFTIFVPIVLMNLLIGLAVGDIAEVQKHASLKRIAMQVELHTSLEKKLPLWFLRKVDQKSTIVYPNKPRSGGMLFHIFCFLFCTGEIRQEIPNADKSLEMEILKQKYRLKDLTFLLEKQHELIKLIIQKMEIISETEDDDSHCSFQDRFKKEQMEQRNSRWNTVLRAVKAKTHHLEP

Row | Structure (SMILES) | inhibition of TRPA1 channel activity (TRPA1) | activation of TRPA1 (TRPA1) | mechanical allodynia (sensitivity to crude touch) [1] | persistence of effects after treatment [1] | duration of analgesic effect ([1]; mouse, in vivo) | mechanical allodynia [1, 4] | cold allodynia (ice-cold acetone) [2] | cold allodynia [2, 4] | mechanical allodynia (analgesic effect) [3] | mechanical allodynia (sensitivity to crude touch) ([1]; listed as (+)-JQ-1) | cold allodynia (ice-cold acetone) ([2]; listed as (+)-JQ-1) | mechanical allodynia ([3]; TRPA1−/− mice, compared with genetic deletion of TRPA1 alone)
1 | C=C1C[C@@H]2[C@H](CC[C@]3(C)C(=O)CC[C@@H]23)[C@@]2(C)C=CC(=O)C=C12 [exemestane, 6-methylenandrosta-1,4-diene-3,17-dione] | Neither sulforaphane, exemestane, nor JQ-1 inhibited TRPA1 channel activity | did not activate TRPA1 | much less sensitive; also recorded: lowered | 24 h | persists over the course of days to weeks | lessened | much less sensitive; also recorded: lowered | lessened | lose their analgesic effects |  |  | 
2 | Cc1sc2c(c1C)C(c1ccc(Cl)cc1)=N[C@@H](CC(=O)OC(C)(C)C)c1nnc(C)n1-2 [JQ-1, (S)-tert-butyl 2-(4-(4-chlorophenyl)-2,3,9-trimethyl-6H-thieno[3,2-f][1,2,4]triazolo[4,3-a][1,4]diazepin-6-yl)acetate] | Neither sulforaphane, exemestane, nor JQ-1 inhibited TRPA1 channel activity | do not activate TRPA1 | much less sensitive | 24 h |  |  | much less sensitive |  | lowers | lowered | lowered | 
3 | C[S+]([O-])CCCCN=C=S (stereo not drawn) [sulforaphane, 1-isothiocyanato-4-(methanesulfinyl)butane] | Neither sulforaphane, exemestane, nor JQ-1 inhibited TRPA1 channel activity | Neither sulforaphane nor JQ-1 activate TRPA1 | less sensitive | 24 h |  |  | less sensitive |  | lose their analgesic effects |  |  | did not lower
